Results reported in patent publication US20110245228A1, “PROTEIN KINASE C ACTIVITY ENHANCER CONTAINING ALKYL ETHER DERIVATIVE OR SALT THEREOF” (Toyama Chemical Co., Ltd., priority 2006, published 2011).

Molecular target: T1, PKCε (Rattus norvegicus, UniProt P09216)
T1 construct: endogenous in cells; host or cells: primary cultured cerebral cortex cells from 18-day Wistar/ST rat fetuses
T1 sequence (P09216 1-737): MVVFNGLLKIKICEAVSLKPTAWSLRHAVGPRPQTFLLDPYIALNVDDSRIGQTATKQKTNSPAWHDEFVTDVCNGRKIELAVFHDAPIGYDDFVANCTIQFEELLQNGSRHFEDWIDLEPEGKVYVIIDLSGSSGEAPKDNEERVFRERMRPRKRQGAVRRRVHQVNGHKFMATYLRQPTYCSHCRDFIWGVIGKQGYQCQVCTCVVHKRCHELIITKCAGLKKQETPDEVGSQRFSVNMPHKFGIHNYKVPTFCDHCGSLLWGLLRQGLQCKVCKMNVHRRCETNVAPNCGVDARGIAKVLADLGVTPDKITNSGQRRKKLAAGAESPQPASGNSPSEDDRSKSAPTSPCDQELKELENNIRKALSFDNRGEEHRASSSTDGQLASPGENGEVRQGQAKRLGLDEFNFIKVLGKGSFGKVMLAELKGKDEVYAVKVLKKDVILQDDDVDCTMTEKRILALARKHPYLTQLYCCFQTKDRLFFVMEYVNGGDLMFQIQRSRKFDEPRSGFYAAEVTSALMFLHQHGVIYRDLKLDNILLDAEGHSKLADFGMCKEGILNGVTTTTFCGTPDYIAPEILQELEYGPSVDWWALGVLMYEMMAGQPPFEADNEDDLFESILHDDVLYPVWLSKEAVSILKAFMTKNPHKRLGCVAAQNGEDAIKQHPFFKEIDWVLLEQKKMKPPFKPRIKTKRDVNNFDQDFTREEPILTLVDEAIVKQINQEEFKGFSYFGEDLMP
Assay: PKC activity enhancing effect in cultured cells (PKCε migration from cytosol to membrane fraction, western blotting)
Format: cell-based
Details: cultured cerebral cortex cells of Wistar/ST rat fetuses, 0.1 μmol/L in terms of T-817
Protocol: The PKC activity was determined, according to the method of Etcheberrigaray et al. (Proceedings of the National Academy of Sciences of the United States of America, 2004, Vol. 101, No. 30, p. 11141-11146), as applicable. At the time of activation, PKC migrates from the cytoplasm to membranes. The PKC level in the membrane fraction over that in the cytosol fraction was taken as the index of PKC activation. In this experiment, the activity of PKCε, a known isoform of PKC, was measured.
Cultured cells were prepared following the method of Hirata et al. (J. Pharmacol. Exp. Ther., 2005, Vol. 314, No. 1, p. 252-259). […]
On Day 8 from the start of the culturing, T-817MA was added to the cells to a final concentration of 0.1 μmol/L, in terms of T-817. […] The protein concentration in the cytosol fraction and the membrane fraction was measured, and the protein content in each sample was adjusted to a certain constant level with the extraction buffer or the extraction buffer containing Triton X-100. […] Then, after washing with PBST, the membrane was treated with ECL plus reagent (manufactured by GE Healthcare Bio-Sciences) and the luminescence was detected by a Lumino Image Analyzer. […]

## OC1CN(CCCOCCc2ccc3sccc3c2)C1 [T-817MA, 1-(3-(2-(1-benzothiophen-5-yl)ethoxy)propyl)azetidin-3-ol]
2 hours after treatment
  PKCε migration from the cytoplasm to membranes (index of PKC activation): migrated from the cytoplasm to membranes
4 hours after treatment
  PKCε migration from the cytoplasm to membranes (index of PKC activation): migrated from the cytoplasm to membranes
